In paper PMC8453943 (Clinical Pharmacology in Drug Development, 2021):
Like-named read-outs stand apart in the source and are kept apart here.

Experiments:
[1] = cited from earlier work
[2] = Part 1 single-ascending-dose study, plasma PK; type: in vivo, human; conditions: for Tmax: human, plasma, po; for CL/F, Geometric mean (% CV) / CL/F, Mean (SD): fasted
[3] = Part 2 effect of a low-fat meal on PK; type: in vivo, human; conditions: for AUC(0-inf) / Cmax / Tmax: human, plasma, oral; for Tmax: Median (range)
[4] = cited from earlier work; remark: listed apart in the source
[5] = repeat dosing, animals; dermal and gastrointestinal toxicities; cited from earlier work
[6] = Safety and tolerability assessments; type: in vivo, human
[7] = preclinical studies; cited from earlier work
[8] = Dose proportionality, power model on pooled exposure data; type: in vivo, human; conditions: 40- to 160-mg dose range, pooled parts 1-3
CYP3A4/5 = conditions: recombinant human CYPs, in vitro; cited from earlier work
[9] = in vitro assays; cited from earlier work
[10] = Part 1 single-ascending-dose study, urine PK; type: in vivo, human; conditions: within 48 hours, across all dose groups
[11] = Part 3 relative bioavailability of capsule B vs capsule A; type: in vivo, human
EGFR = conditions: NSCLC with EGFR exon 20 insertion mutations; cited from earlier work
[12] = part 1, 120 mg single oral dose
[13] = part 1, 160 mg single oral dose
[14] = 120 mg, Geometric mean (% CV), part 2, 120 mg, fasted
[15] = 120 mg, Geometric mean (% CV), part 2, 120 mg, low-fat meal
[16] = 120 mg, Mean (SD), part 2, 120 mg, fasted
[17] = 120 mg, Mean (SD), part 2, 120 mg, low-fat meal
[18] = 160 mg, Geometric mean (% CV), part 2, 160 mg, fasted
[19] = 160 mg, Geometric mean (% CV), part 2, 160 mg, low-fat meal
[20] = 160 mg, Mean (SD), part 2, 160 mg, fasted
[21] = 160 mg, Mean (SD), part 2, 160 mg, low-fat meal
[22] = part 2, 120 mg, low-fat meal (test) vs fasted (reference)
[23] = AEs in ≥10% of volunteers in any part
[24] = part 1, overall (N = 40, includes pooled placebo)
[25] = part 2, 120 mg, low-fat meal (n = 6)
[26] = part 2, 160 mg, fasted (n = 10)
[27] = part 2, 160 mg, low-fat meal (n = 10)
[28] = part 3, mobocertinib 160 mg, overall (N = 13)
[29] = part 3, 160 mg, fasted, capsule B (test) vs capsule A (reference)

C=CC(=O)Nc1cc(Nc2ncc(C(=O)OC(C)C)c(-c3cn(C)c4ccccc34)n2)c(OC)cc1N(C)CCN(C)C [Mobocertinib]
Permeability [1]: high permeability | Solubility [1]: high solubility | Tmax [2]: 4 to 6 h | Tmax ([2]; 80 mg): 4 h | Tmax ([2]; 120 mg): 6 h | Tmax ([2]; 160 mg): 6 h | Time for which analyte was quantifiable in plasma ([2]; part 1, 20 mg mobocertinib cohort): up to 72 hours | CL/F, Geometric mean (% CV) ([2]; part 1, 20 mg single oral dose): 314 (11.9) L/h | CL/F, Mean (SD) ([2]; part 1, 20 mg single oral dose): 316 (37.5) L/h | Time for which analyte was quantifiable in plasma ([2]; part 1, 40 mg mobocertinib cohort): ≤ 96 h | CL/F, Geometric mean (% CV) ([2]; part 1, 40 mg single oral dose): 249 (49.5) L/h | CL/F, Mean (SD) ([2]; part 1, 40 mg single oral dose): 283 (140.1) L/h | Time for which analyte was quantifiable in plasma ([2]; part 1, 80 mg mobocertinib cohort): ≤ 96 h | CL/F, Geometric mean (% CV) ([2]; part 1, 80 mg single oral dose): 312 (72.0) L/h | CL/F, Mean (SD) ([2]; part 1, 80 mg single oral dose): 378 (272.2) L/h | Time for which analyte was quantifiable in plasma ([2]; part 1, 120 mg mobocertinib cohort): ≤ 96 h | CL/F, Geometric mean (% CV) [2, 12]: 263 (56.9) L/h | CL/F, Mean (SD) [2, 12]: 292 (166.2) L/h | Time for which analyte was quantifiable in plasma ([2]; part 1, 160 mg mobocertinib cohort): ≤ 168 h | CL/F, Geometric mean (% CV) [2, 13]: 157 (33.2) L/h | CL/F, Mean (SD) [2, 13]: 168 (55.7) L/h | AUC(0-inf) [3, 14]: 526 ng·h/mL | AUC(0-inf) [3, 15]: 534 ng·h/mL | AUC(0-inf) [3, 16]: 587 ng·h/mL | AUC(0-inf) [3, 17]: 578 ng·h/mL | Cmax [3, 14]: 31.2 ng/mL | Cmax [3, 15]: 27.5 ng/mL | Cmax [3, 16]: 35.5 ng/mL | Cmax [3, 17]: 29.5 ng/mL | Tmax ([3]; 120 mg, part 2, 120 mg, fasted): 4 h | Tmax ([3]; 120 mg, part 2, 120 mg, low-fat meal): 6 h | AUC(0-inf) [3, 18]: 743 ng·h/mL | AUC(0-inf) [3, 19]: 706 ng·h/mL | AUC(0-inf) [3, 20]: 862 ng·h/mL | AUC(0-inf) [3, 21]: 768 ng·h/mL | Cmax [3, 18]: 41 ng/mL | Cmax [3, 19]: 39.5 ng/mL | Cmax [3, 20]: 45.8 ng/mL | Cmax [3, 21]: 43 ng/mL | Tmax ([3]; 160 mg, part 2, 160 mg, fasted): 6 h | Tmax ([3]; 160 mg, part 2, 160 mg, low-fat meal): 6 h | Effect of a low-fat meal on PK ([3]; mobocertinib and its active metabolites): did not affect the PK | AUC∞, Geometric LS Mean Ratio (90%CI) [3, 22]: 1.02 (0.90‐1.15) | Cmax, Geometric LS Mean Ratio (90%CI) [3, 22]: 0.88 (0.71‐1.09) | Cmax, Geometric LS Mean Ratio (90%CI) ([3]; part 2, 160 mg, low-fat meal (test) vs fasted (reference)): 0.96 | Time for which mean plasma concentrations were quantifiable ([3]; part 2, 120 and 160 mg, low-fat meal and fasted): up to 168 hours | Accumulation ratio of AUC0-24, cycle 2 day 1 over cycle 1 day 1 ([4]; 160 mg once daily, repeat dosing, ref NCT02716116): 1.03 | Maximum tolerated dose ([4]; once daily, patients): 160 mg | Maximum tolerated dose [5]: 10 mg/kg | Diarrhea [6, 23]: 10.0% | Flatulence [6, 23]: 12.5% | Soft feces [6, 23]: 12.5% | Serious AEs ([6]; all parts): No serious AEs were reported | Volunteers who experienced AEs ([6]; part 1 (includes pooled placebo)): 48% | AE leading to discontinuation ([6]; part 1, 20 mg (n = 6)): 0 n (%) | Any AE ([6]; part 1, 20 mg (n = 6)): 2 (33) n (%) | Grade 1 AE ([6]; part 1, 20 mg (n = 6)): 2 (33) n (%) | Grade 2 AE ([6]; part 1, 20 mg (n = 6)): 0 n (%) | Grade ≥3 AE ([6]; part 1, 20 mg (n = 6)): 0 n (%) | Treatment-related AE ([6]; part 1, 20 mg (n = 6)): 1 (17) n (%) | AE leading to discontinuation ([6]; part 1, 40 mg (n = 6)): 0 n (%) | Any AE ([6]; part 1, 40 mg (n = 6)): 3 (50) n (%) | Grade 1 AE ([6]; part 1, 40 mg (n = 6)): 2 (33) n (%) | Grade 2 AE ([6]; part 1, 40 mg (n = 6)): 1 (17) n (%) | Grade ≥3 AE ([6]; part 1, 40 mg (n = 6)): 0 n (%) | Treatment-related AE ([6]; part 1, 40 mg (n = 6)): 0 n (%) | AE leading to discontinuation ([6]; part 1, 80 mg (n = 6)): 0 n (%) | Any AE ([6]; part 1, 80 mg (n = 6)): 4 (67) n (%) | Grade 1 AE ([6]; part 1, 80 mg (n = 6)): 3 (50) n (%) | Grade 2 AE ([6]; part 1, 80 mg (n = 6)): 1 (17) n (%) | Grade ≥3 AE ([6]; part 1, 80 mg (n = 6)): 0 n (%) | Treatment-related AE ([6]; part 1, 80 mg (n = 6)): 3 (50) n (%) | AE leading to discontinuation ([6]; part 1, 120 mg (n = 6)): 0 n (%) | Any AE ([6]; part 1, 120 mg (n = 6)): 3 (50) n (%) | Grade 1 AE ([6]; part 1, 120 mg (n = 6)): 1 (17) n (%) | Grade 2 AE ([6]; part 1, 120 mg (n = 6)): 2 (33) n (%) | Grade ≥3 AE ([6]; part 1, 120 mg (n = 6)): 0 n (%) | Treatment-related AE ([6]; part 1, 120 mg (n = 6)): 0 n (%) | AE leading to discontinuation ([6]; part 1, 160 mg (n = 6)): 0 n (%) | Any AE ([6]; part 1, 160 mg (n = 6)): 5 (83) n (%) | Grade 1 AE ([6]; part 1, 160 mg (n = 6)): 4 (67) n (%) | Grade 2 AE ([6]; part 1, 160 mg (n = 6)): 1 (17) n (%) | Grade ≥3 AE ([6]; part 1, 160 mg (n = 6)): 0 n (%) | Treatment-related AE ([6]; part 1, 160 mg (n = 6)): 3 (50) n (%) | Decrease in serum creatine kinase ([6]; part 1, 20-mg dose group): –26.8 U/L | Decrease in serum creatine kinase ([6]; part 1, 160-mg group): –69.0 U/L | AE leading to discontinuation [6, 24]: 0 n (%) | Any AE [6, 24]: 19 (48) n (%) | Grade 1 AE [6, 24]: 14 (35) n (%) | Grade 2 AE [6, 24]: 5 (13) n (%) | Grade ≥3 AE [6, 24]: 0 n (%) | Treatment-related AE [6, 24]: 9 (23) n (%) | Volunteers who experienced AEs ([6]; part 2): 75% | AE leading to discontinuation ([6]; part 2, 120 mg, fasted (n = 6)): 0 n (%) | Any AE ([6]; part 2, 120 mg, fasted (n = 6)): 3 (50) n (%) | Grade 1 AE ([6]; part 2, 120 mg, fasted (n = 6)): 2 (33) n (%) | Grade 2 AE ([6]; part 2, 120 mg, fasted (n = 6)): 1 (17) n (%) | Grade ≥3 AE ([6]; part 2, 120 mg, fasted (n = 6)): 0 n (%) | Treatment-related AE ([6]; part 2, 120 mg, fasted (n = 6)): 3 (50) n (%) | Treatment-related AE, Grade ≥3 ([6]; part 2, 120 mg, fasted (n = 6)): 0 n (%) | AE leading to discontinuation [6, 25]: 0 n (%) | Any AE [6, 25]: 3 (50) n (%) | Grade 1 AE [6, 25]: 2 (33) n (%) | Grade 2 AE [6, 25]: 0 n (%) | Grade ≥3 AE [6, 25]: 1 (17) n (%) | Treatment-related AE [6, 25]: 2 (33) n (%) | Treatment-related AE, Grade ≥3 [6, 25]: 0 n (%) | AE leading to discontinuation [6, 26]: 0 n (%) | Any AE [6, 26]: 5 (50) n (%) | Grade 1 AE [6, 26]: 5 (50) n (%) | Grade 2 AE [6, 26]: 0 n (%) | Grade ≥3 AE [6, 26]: 0 n (%) | Treatment-related AE [6, 26]: 5 (50) n (%) | Treatment-related AE, Grade ≥3 [6, 26]: 0 n (%) | AE leading to discontinuation [6, 27]: 0 n (%) | Any AE [6, 27]: 7 (70) n (%) | Grade 1 AE [6, 27]: 7 (70) n (%) | Grade 2 AE [6, 27]: 0 n (%) | Grade ≥3 AE [6, 27]: 0 n (%) | Treatment-related AE [6, 27]: 4 (40) n (%) | Treatment-related AE, Grade ≥3 [6, 27]: 0 n (%) | AE leading to discontinuation ([6]; part 2, overall (N = 16)): 0 n (%) | Any AE ([6]; part 2, overall (N = 16)): 12 (75) n (%) | Grade 1 AE ([6]; part 2, overall (N = 16)): 11 (69) n (%) | Grade 2 AE ([6]; part 2, overall (N = 16)): 0 n (%) | Grade ≥3 AE ([6]; part 2, overall (N = 16)): 1 (6) n (%) | Treatment-related AE ([6]; part 2, overall (N = 16)): 8 (50) n (%) | Treatment-related AE, Grade ≥3 ([6]; part 2, overall (N = 16)): 0 n (%) | Volunteers who experienced AEs ([6]; part 3): 46% | AE leading to discontinuation [6, 28]: 1 (8) n (%) | Grade 1 AE [6, 28]: 5 (39) n (%) | Grade 2 AE [6, 28]: 1 (8) n (%) | Grade ≥3 AE [6, 28]: 0 n (%) | Treatment-related AE [6, 28]: 2 (15) n (%) | Volunteers with AEs [6, 28]: 6 (46) n (%) | Single doses tolerated in healthy adult volunteers ([6]; single oral dose): up to 160 mg | Route of elimination [7]: eliminated almost completely through feces | Slope (95% CI) of regression of log mobocertinib AUC∞ vs log dose [8]: 1.20 (0.93‐1.46) | Percent contribution of CYP3A4/5 to metabolism (CYP3A4/5): > 90% | Genotoxicity [9]: no evidence of genotoxicity | Administered mobocertinib dose excreted unchanged in urine [10]: < 1.2% | Tmax ([11]; human, plasma, oral, 160 mg): 5 to 6 h | AUC∞, LS Geometric Mean Ratio (90%CI) [11, 29]: 0.96 | Cmax, LS Geometric Mean Ratio (90%CI) [11, 29]: 0.93

C=CC(=O)Nc1cc(Nc2nccc(-c3cn(C)c4ccccc34)n2)c(OC)cc1N(C)CCN(C)C [osimertinib]
Median progression-free survival (EGFR): ≈ 2 months

C#Cc1cccc(Nc2ncnc3cc(OCCOC)c(OCCOC)cc23)c1 [erlotinib]
Median progression-free survival (EGFR): ≈ 2 months
